The results in this text go back to US10316025B2, “Substituted piperazine compounds and methods of use and use thereof” (SUNSHINE LAKE PHARMA CO., LTD., priority 2015, dated 2019).

pIC50, pKi: −log10 of the molar value.

For series [1], the target named is T1, human 5-HT transporters (SERT) (Homo sapiens, UniProt P31645).
T1 construct: expressed in transfected cells; host or cells: CHO cells (membrane homogenate)
Kind of series: Affinity to CHO cells-transfected human-derived 5-HT transporter ([3H]imipramine binding). The conditions noted are these: 2 nM [3H]imipramine, CHO cell membrane homogenate, 22°C, 60 min. The protocol:
To a mixed system of cell membrane homogenate protein (12 μg), 2 nM of [^3H] imipramine and buffer solution (50 mM of Tris-HCl (pH 7.4), 120 mM of NaCl, 0.5 mM of KCl and 0.1% BSA) was added or not added the test compound at 22° C., and then the resulting mixture was incubated for 60 minutes.
To the mixed system mentioned above was added 10 μM of imipramine for measuring nonspecific binding values.
After incubation, the samples were filtered rapidly in vacuo with a 96-sample cell harvester (Unifilter, Packard) through glass-fiber filters (GF/B, Packard) pre-soaked with 0.3% PEI and rinsed several times with an ice-cold 50 mM of Tris-HCl and 150 mM of NaCl. The filters were dried and the retained radioactivity was measured by means of a scintillation counter (Topcount, Packard) using a scintillation cocktail (Microscint O, Packard). Each experimental result was expressed as a percentage inhibition of radioactive ligand specific binding relative to control groups.
The standard reference compound was imipramine, and ICso values were calculated by the competitive curve obtained from a series of concentrations of the experimental test. The experimental results of the affinity of the compounds disclosed herein to human 5-HT transporters (SERT) were listed in Table A.

The target in series [2] is T2, 5-HT1A receptors (Homo sapiens, UniProt P08908).
T2 construct: host or cells: human HEK-293 cell homogenates
T2 sequence (P08908 1-422): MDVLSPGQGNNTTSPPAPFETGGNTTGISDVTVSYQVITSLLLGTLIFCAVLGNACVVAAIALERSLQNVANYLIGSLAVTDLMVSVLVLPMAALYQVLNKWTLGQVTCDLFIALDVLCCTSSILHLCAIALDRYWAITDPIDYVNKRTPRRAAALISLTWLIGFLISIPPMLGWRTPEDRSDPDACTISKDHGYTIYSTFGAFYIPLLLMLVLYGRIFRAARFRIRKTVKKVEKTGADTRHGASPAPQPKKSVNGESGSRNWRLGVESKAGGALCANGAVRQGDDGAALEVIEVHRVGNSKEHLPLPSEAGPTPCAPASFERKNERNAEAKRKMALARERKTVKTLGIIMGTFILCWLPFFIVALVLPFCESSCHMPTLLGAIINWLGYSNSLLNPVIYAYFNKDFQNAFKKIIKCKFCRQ
Nature of the series: h5-HT1A binding affinity test ([3H]8-OH-DPAT, HEK-293 cell homogenates). To be noted: 0.3 nM [3H]8-OH-DPAT, 22°C, 60 min, Ki from IC50 by ChengPrusoff equation. The protocol: Human HEK-293 cell homogenates (36 μg of protein) were incubated at 22° C. for 60 minutes with 0.3 nM of [^3H]8-OH-DPAT (Perkin-Elmer) in the absence or presence of the test compound in a buffer solution containing 50 mM of Tris-HCl (pH 7.4), 10 mM of MgSO4, 0.5 mM of EDTA and 2 μg/mL aprotinine.
The non-specific binding value was determined by incubating the same mixture in the presence of 10 μM of 8-OH-DPAT, which was used as the standard reference compound. Competitive curve was obtained by testing data of 8-OH-DPAT in each experiment at several concentrations.
The incubated samples were filtered fastly using a 96-sample cell harvester (Unifilter, Packard) through fiberglass filter membranes (GF/B, Packard) pre-soaked with 0.3% PEI in vacuo, and washed several times with an ice cold 50 mM of Tris-HCl. The filter membranes were dried and the retained radioactivity was measured in a scintillation counter (Topcount, Packard) using a scintillation cocktail (Microscint 0, Packard). The experimental results were expressed as inhibition percentage of radioactive ligand specific binding relative to control groups.
The experiments of combining [^3H]8-OH-DPAT (0.3 nM) with 5-HT1A receptors of human HEK-293 cells were accomplished by using Scintillation Proximity Assay on membrane. The test compounds were required to be tested at least three times in the case of a concentration of more than 6 log, and the data were analyzed by the method of nonlinear regression using Hill equation curve to obtain an IC50 value, and then the IC50 value was calculated by ChengPrusoff equation to obtain a Ki value.

Series [3] can be described thus: Pharmacokinetic evaluation in rats after intravenous or gavage administration. In kind it is in vivo, SD rats. To be noted: for AUC(0-inf) / AUC(0-t) / Cmax / Tmax / clearance / half-life / Vd: SD, rat, plasma; for Vd: read-out: Vss. The protocol: The pharmacokinetic evaluation of the compound disclosed herein in rats, dogs and monkeys was carried out in this invention, and animal information as described in Table 1.
The compounds disclosed herein were administered in form of a saline solution containing 5% DMSO, 5% Kolliphor HS 15, 2% (2% HCl) and 88% Saline, or a physiological saline solution containing 10% DMSO, 10% Kolliphor HS 15 and 80% physiological saline to an animal subject. The animals of the intravenous administration group were administered at a dose of 1 mg/kg, and 0.3 mL of vein blood samples were collected at the time points of 0, 0.083, 0.25, 0.5, 1.0, 2.0, 5.0, 7.0 and 24 h after drug administration, then each blood sample was processed to separate plasma by centrifugation at 3000 rpm or 4000 rpm for 10 minutes, and the plasma samples were collected and stored at −20° C. or −70° C. The animals of the gavage administration group were administered at a dose of 2.5 mg/kg, and 0.3 mL of vein blood samples were collected at the time points of 0, 0.083, 0.25, 0.5, 1.0, 2.0, 5.0, 7.0 and 24 h after drug administration, then each blood sample was processed to separate plasma by centrifugation at 3000 rpm or 4000 rpm for 10 minutes, and the plasma samples were collected and stored at −20° C. or −70° C.
The above plasma was analyzed by the LC/MS/MS system.
The LC/MS/MS system for the analysis comprises an Agilent 1200 Series Vacuum Degasser, binary syringe pumps, a well-plate autosampler, a column oven and an Agilent G6430A Triple Quadrupole Mass Spectrometer equiped with an electrospray ionization (ESI) source.
Analysis was performed on waters XBridge C18 (2.1×50 mm, […] column, and 5 μL of sample was injected). Conditions of the analysis comprise: a mobile phase consisting of mobile phase A (water, 2 mM ammonium formate and 0.1% formic acid) and mobile phase B (methanol, 2 mM ammonium formate and 0.1% formic acid). A flow rate of 0.4 mL/min.

T1 sequence (P31645 whole entry): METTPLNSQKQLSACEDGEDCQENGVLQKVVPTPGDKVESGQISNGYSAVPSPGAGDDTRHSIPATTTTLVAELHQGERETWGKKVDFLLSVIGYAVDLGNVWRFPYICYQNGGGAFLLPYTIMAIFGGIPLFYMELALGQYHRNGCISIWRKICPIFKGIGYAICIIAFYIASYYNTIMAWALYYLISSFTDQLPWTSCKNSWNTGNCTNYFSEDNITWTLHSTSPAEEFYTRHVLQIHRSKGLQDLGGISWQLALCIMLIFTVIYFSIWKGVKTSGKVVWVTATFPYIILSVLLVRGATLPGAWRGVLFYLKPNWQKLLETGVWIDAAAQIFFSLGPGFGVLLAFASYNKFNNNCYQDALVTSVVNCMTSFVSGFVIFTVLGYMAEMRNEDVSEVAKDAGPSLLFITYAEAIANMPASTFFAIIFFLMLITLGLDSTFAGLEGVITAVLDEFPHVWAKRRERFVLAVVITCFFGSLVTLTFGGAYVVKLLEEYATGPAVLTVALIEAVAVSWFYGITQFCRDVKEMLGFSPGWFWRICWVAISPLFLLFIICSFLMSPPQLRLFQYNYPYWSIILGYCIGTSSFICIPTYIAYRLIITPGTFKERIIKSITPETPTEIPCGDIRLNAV

The term pIC50 denotes the IC50 on a negative log10 scale, so that one unit is a factor of ten. A word on the pKi: it is the negative decadic logarithm of the Ki, by convention in mol/L. A higher pKi goes with a small Ki. As for `N#Cc1ccc2[nH]cc(CCCCN3CCN(c4ncc(-c5cccc(C(N)=O)c5)cn4)CC3)c2c1` [Example 1, 3-(2-(4-(4-(5-cyano-1H-indol-3-yl)butyl)piperazin-1-yl)pyrimidin-5-yl)benzamide], the pIC50 in series [1] is 9.07. In series [2], this compound had a pKi of 8.54.
By AUC(0-inf) is commonly meant total exposure, with the tail of the curve extrapolated. Low values mean low exposure, high ones high exposure. One may read the AUC(0-t) as the area under the concentration-time curve up to a stated or last time point. High values mean more exposure, low ones less exposure. Broadly, the Cmax is the maximum level reached in the sampled fluid or tissue. The term Tmax denotes the time at which the peak concentration occurs. As usually defined, the half-life is the time needed for the level to fall by half in the phase considered. A lower half-life goes with fast loss. In turn, `N#Cc1ccc2[nH]cc(CCCN3CCN(c4ncc(-c5cccc(C(N)=O)c5)cn4)CC3)c2c1` [Example 2, 3-(2-(4-(3-(5-cyano-1H-indol-3-yl)propyl)piperazin-1-yl)pyrimidin-5-yl) benzamide] gave a pIC50 in series [1] of 9.46. The compound also gave a negative logarithm of the Ki (pKi) in series [2] of 8.92. For the same compound, in series [3] (iv, 1 mg/kg), the AUC(0-inf) turned out to be 753 ng·h/mL, the AUC(0-t) was 722 ng·h/mL, the Cmax is 409 ng/mL and the Tmax was found to be 0.083 h. Also, in series [3] (iv, 1 mg/kg), the clearance worked out at 22.9 mL/min/kg, the half-life was 1.59 h and the Vd amounted to 2.33 L/kg. Also, in series [3] (po, 2.5 mg/kg), the AUC(0-inf) was 767 ng·h/mL, the AUC(0-t) was determined as 706 ng·h/mL, the Cmax is 241 ng/mL and the time of peak concentration (Tmax) was found to be 0.833 h. In series [3] (po, 2.5 mg/kg), the half-life is 1.95 h and the F was determined as 39.2%.
In series [1], `N#Cc1ccc2[nH]cc(CCCCN3CCN(c4ncc(-c5ccc(C(N)=O)cc5)cn4)CC3)c2c1` [Example 5, 4-(2-(4-(4-(5-cyano-1H-indol-3-yl)butyl)piperazin-1-yl)pyrimidin-5-yl)benzamide] had a pIC50 of 9.10. In series [2], this compound gave a pKi of 8.07.
In the case of `N#Cc1ccc2[nH]cc(CCCN3CCN(c4ncc(-c5ccc(C(N)=O)cc5)cn4)CC3)c2c1` [Example 6, 4-(2-(4-(3-(5-cyano-1H-indol-3-yl)propyl)piperazin-1-yl)pyrimidin-5-yl) benzamide], the pIC50 in series [1] is 9.03. This compound also gave a pKi in series [2] of 8.38.
For `N#Cc1ccc2[nH]cc(CCCCN3CCN(c4ncc(-c5ccc(F)cc5)cn4)CC3)c2c1` [Example 7, 3-(4-(4-(5-(4-fluorophenyl)pyrimidin-2-yl)piperazin-1-yl)butyl)-1H-indole-5-carbonitrile], in series [1], the pIC50 was 9.06. For the same compound, the pKi in series [2] was 8.43. Also, in series [3] (iv, 1 mg/kg), the AUC(0-inf) amounted to 1030 ng·h/mL, the exposure AUC(0-t) turned out to be 1010 ng·h/mL, the Cmax was determined as 299 ng/mL and the Tmax is 0.139 h. In series [3] (iv, 1 mg/kg), the clearance was determined as 16.7 mL/min/kg, the half-life is 4.64 h and the Vd worked out at 5.03 L/kg. Besides, in series [3] (po, 2.5 mg/kg), the AUC(0-inf) was determined as 2010 ng·h/mL, the AUC(0-t) turned out to be 1960 ng·h/mL, the highest level (Cmax) was 194 ng/mL and the Tmax amounted to 2.67 h. For the same compound, in series [3] (po, 2.5 mg/kg), the half-life is 4.37 h and the F was 78.1%.
The compound `N#Cc1ccc2[nH]cc(CCCN3CCN(c4ncc(-c5ccc(F)cc5)cn4)CC3)c2c1` [Example 8, 3-(3-(4-(5-(4-fluorophenyl)pyrimidin-2-yl)piperazin-1-yl)propyl)-1H-indole-5-carbonitrile] gave a pIC50 in series [1] of 8.89. The compound also had a pKi in series [2] of 8.72. In series [3] (iv, 1 mg/kg), the AUC(0-inf) was 1250 ng·h/mL, the AUC(0-t) amounted to 1180 ng·h/mL, the Cmax came out at 195 ng/mL and the Tmax stood at 0.139 h. In series [3] (iv, 1 mg/kg), the clearance is 13.4 mL/min/kg, the half-life is 5.85 h and the Vd was determined as 6.01 L/kg. Besides, in series [3] (po, 2.5 mg/kg), the AUC(0-inf) worked out at 2070 ng·h/mL, the exposure AUC(0-t) amounted to 2140 ng·h/mL, the concentration peaked (Cmax) at 180 ng/mL and the Tmax came to 4 h. In addition, in series [3] (po, 2.5 mg/kg), the half-life is 4.85 h and the F stood at 68.48%.
For the compound `COc1ccccc1-c1cnc(N2CCN(CCCCc3c[nH]c4ccc(C#N)cc34)CC2)nc1` [Example 9, 3-(4-(4-(5-(2-methoxyphenyl)pyrimidin-2-yl)piperazin-1-yl)butyl)-1H-indole-5-carbonitrile], the pIC50 in series [1] was 9.00. Besides, the pKi in series [2] is 8.57.
The matching figures for `COc1ccccc1-c1cnc(N2CCN(CCCc3c[nH]c4ccc(C#N)cc34)CC2)nc1` [Example 10]: 9.08 and 8.47.
The matching figures for `N#Cc1ccc2[nH]cc(CCCCN3CCN(c4ncc(-c5ccc(Cl)cc5)cn4)CC3)c2c1` [Example 11, 3-(4-(4-(5-(4-chlorophenyl)pyrimidin-2-yl)piperazin-1-yl)butyl)-1H-indole-5-carbonitrile]: 8.80 and 7.89.
In the case of `N#Cc1ccc2[nH]cc(CCCN3CCN(c4ncc(-c5ccc(Cl)cc5)cn4)CC3)c2c1` [Example 12, 3-(3-(4-(5-(4-chlorophenyl)pyrimidin-2-yl)piperazin-1-yl)propyl)-1H-indole-5-carbonitrile], the pIC50 in series [1] was 9.49. The compound further had a pKi in series [2] of 8.26. In series [3] (iv, 1 mg/kg), the AUC(0-inf) was 2240 ng·h/mL, the AUC(0-t) was found to be 1870 ng·h/mL, the Cmax was found to be 444 ng/mL and the Tmax came out at 0.083 h. In addition, in series [3] (iv, 1 mg/kg), the clearance was 7.5 mL/min/kg, the half-life was 9.52 h and the Vd came to 5.46 L/kg. In addition, in series [3] (po, 2.5 mg/kg), the AUC(0-t) was 2950 ng·h/mL, the highest concentration (Cmax) was 207 ng/mL, the Tmax amounted to 5.67 h and the F came out at 52.62%.
For the compound `COc1cc(F)ccc1-c1cnc(N2CCN(CCCCc3c[nH]c4ccc(C#N)cc34)CC2)nc1` [Example 15, 3-(4-(4-(5-(4-fluoro-2-methoxyphenyl)pyrimidin-2-yl)piperazin-1-yl)butyl)-1H-indole-5-carbonitrile], the pIC50 in series [1] was 9.02. In addition, in series [2], the pKi was 7.96.
In the case of `COc1cc(F)ccc1-c1cnc(N2CCN(CCCc3c[nH]c4ccc(C#N)cc34)CC2)nc1` [Example 16, 3-(3-(4-(5-(4-fluoro-2-methoxyphenyl)pyrimidin-2-yl)piperazin-1-yl)propyl)-1H-indole-5-carbonitrile], the pIC50 in series [1] is 9.06. This compound also gave a negative-log Ki (pKi) in series [2] of 8.15.
